From patent US20240091317A1, “USE OF GLP-2 ANALOGUES IN PATIENTS WITH RENAL INSUFFICIENCY” (Zealand Pharma A/S, priority 2020, published 2024)

Columns and labels:
[1] = in particular moderate or severe renal impairment, or ESRD; cited from earlier work
[2] = in vivo; cited from earlier work
[3] = Phase 1 trial: PK of a single subcutaneous dose of 10 mg glepaglutide in subjects with severe renal impairment/ESRD vs normal renal function; assay type: in vivo, human
Description: The study was designed as a two-stage design, open-label, multi-center, non-randomized trial evaluating the PK of a single, subcutaneous dose of 10 mg glepaglutide in subjects with varying degrees of renal function. The renal function was calculated by the estimated glomerular filtration rate (eGFR) according to the Modification of Diet in Renal Disease (MDRD) equation.
Sixteen Caucasian subjects were enrolled, 4 with end stage renal disease (ESRD) not on dialysis (eGFR<15 mL/min), 4 with severe renal impairment (eGFR<30 mL/min) and 8 matching controls with normal renal function (eGFR>90 mL/min) (Table 1). Demographics, except eGFR, was similar across groups (Table 1).
Glepaglutide (ZP1848, 10 mg) was provided in a single-use vial containing 1 mL (an extractable volume of 0.5 mL) of a clear, colourless solution for subcutaneous injection, with a concentration of 20 mg/mL glepaglutide.
PK-blood samples were collected over a 14 day period following a single dose of 10 mg glepaglutide in the abdomen. The PK-samples were analyzed for glepaglutide, ZP2469 and ZP2711 using a GLP-validated LC/MS/MS assay.
The primary PK parameters were area under the curve between dose and last measurable concentration (AUCt), extrapolated to infinity (AUCinf) and calculated from 0 to 168 hours (AUC0-168) and the maximum plasma concentration (Cmax), which were computed for glepaglutide, ZP2469, ZP2711. A constructed analyte “glepaglutide-total” (glepaglutide+ZP2469+ZP2711) was used for the primary endpoint, and analysed using a non-compartmental approach.

Molecule: CC[C@H](C)[C@H](NC(=O)[C@H](Cc1ccccc1)NC(=O)[C@H](CC(=O)O)NC(=O)[C@H](CCCNC(=N)N)NC(=O)[C@H](C)NC(=O)[C@H](C)NC(=O)[C@H](CC(C)C)NC(=O)[C@H](CC(N)=O)NC(=O)[C@H](CC(=O)O)NC(=O)[C@H](CC(C)C)NC(=O)[C@@H](NC(=O)[C@@H](NC(=O)[C@H](CC(N)=O)NC(=O)[C@H](CCSC)NC(=O)[C@H](CCC(=O)O)NC(=O)[C@H](CC(=O)O)NC(=O)[C@H](CO)NC(=O)[C@H](Cc1ccccc1)NC(=O)[C@H](CO)NC(=O)CNC(=O)[C@H](CC(=O)O)NC(=O)CNC(=O)[C@@H](N)Cc1c[nH]cn1)[C@@H](C)O)[C@@H](C)CC)C(=O)N[C@@H](CC(N)=O)C(=O)N[C@@H](Cc1c[nH]c2ccccc12)C(=O)N[C@@H](CC(C)C)C(=O)N[C@H](C(=O)N[C@@H](CCC(N)=O)C(=O)N[C@H](C(=O)N[C@@H](CCCCN)C(=O)N[C@H](C(=O)N[C@H](C(=O)N[C@@H](CC(=O)O)C(=O)O)[C@@H](C)O)[C@@H](C)CC)[C@@H](C)O)[C@@H](C)CC [teduglutide]
- Clearance in subjects with renal dysfunction [1]: impaired

Molecule: GLP-2 [3-33]: truncated GLP-2 [3-33] (DGSFSDEMNTILDNLAARDFINWLIQTKITD; Glucagon-like peptide 2; UniProt P01275 148-178, looked up, fragment)
- Half-life in humans [2]: 27 min

Molecule: H-HGEGTFSSELATILDALAARDFIAWLIATKITDKKKKKK-NH2 [ZP1848]
- Clearance in patients with renal impairment ([3]; human, in vivo): cleared normally
- Difference in total exposure (AUC0-168h) and peak plasma concentrations (Cmax), severe renal impairment/ESRD vs normal renal function ([3]; single SC dose): no clinically relevant difference
- Difference in primary PK parameters (AUCt, AUCinf, AUC0-168, Cmax), severe renal impairment and ESRD vs healthy matched subjects ([3]; single SC dose 10 mg glepaglutide): no statistically significant differences

Molecule: Hy-His-Ala-Asp-Gly-Ser-Phe-Ser-Asp-Glu-Met-Asn-Thr-Ile-Leu-Asp-Asn-Leu-Ala-Ala-Arg-Asp-Phe-Ile-Asn-Trp-Leu-Ile-Gln-Thr-Lys-Ile-Thr-Asp-OH [GLP-2 [1-33]]
- Half-life in humans [2]: around 7 minutes
